The test system of data set [1] is C. albicans ATCC 10231. As to conditions: lead compound 1, previously reported; read-out: IC50 [95% confidence interval] Candida albicans; cited from earlier work.
The subject of data set [2] is S. aureus ATCC 25923. As to the kind of experiment: Broth microdilution antimicrobial assay (MIC, IC50). The format is cell-based. As to conditions: Staphylococcus aureus; for IC50: ATCC25923, 50% growth inhibition, 24 h, read-out: IC50 [95% confidence interval] Staphylococcus aureus; for MIC: ATCC25923, 24 h, broth microdilution, 37°C. The procedure: (§1) Reference strains of Staphylococcus aureus (ATCC 25923), Escherichia coli (ATCC 25922), and Candida albicans (ATCC 10231) were used in this study as microbial models. These strains were purchased from the American Type Culture Collection (ATCC); bacterial cultures were routinely grown on 5% blood agar plate, while fungal cultures on Sabouraud Dextrose Agar (Biolife […]., Milan, Italy). […] In short, microbial inocula were prepared at 0.5 McFarland in PBS and, subsequently, bacterial suspensions were diluted 1:200 in Mueller-Hinton broth (Sigma-Aldrich, St. Louis, MO, USA), while fungal inoculum was diluted 1:20 in RPMI-1640 medium (Gibco®, ThermoFisher Scientific Inc., Waltham, MA, USA), containing glucose 2%, 0.3% levo-glutamine buffered to pH 7.0 with 0.165 M 3-(N-morpholino) propanesulfonic acid (MOPS). A total of 100 μL of these microbial suspensions was introduced into a 96-well microplate and incubated with 100 μL of the compounds, two-fold serially diluted in the range of 100-0.19 μM. Positive controls (microbial suspensions in regular media), negative controls (only compounds), and solvent controls (microbial suspensions incubated with DMSO dilutions) were included in the tests. The plate was incubated at 37°C for 24 h, and subsequently the optical density at 630 nm (OD630nm) was spectrophotometrically measured. Experiments were carried out in triplicate in three biological replicates. […] Statistical analysis was carried out by using GraphPad Prism version 9.4.1 for Windows (GraphPad Software, San Diego, California USA, www.graphpad.com). ^a MIC (Minimum Inhibitory Concentration) were determined in vitro by means of a standardized microdilution assay, in compliance with the Clinical and laboratory Standard Institute (CLSI) guidelines (30). Microbial suspensions were prepared at 0.5 McFarland in PBS, then diluted in the media and transferred in a 96 micro-well plate together with the serially 2-fold dilutions of the compounds. After 24h of incubation at 37°C, microbial growths were evaluated by measuring the Optical Density at 600 nm, then percentage values were obtained as relative to the positive controls (microbial suspensions in regular media).
(In general: In broth dilution the organism is exposed to a series of concentrations in liquid medium.)

Data set [3] relates to E. coli ATCC 25922. The description is as above. It counts as cell-based. The note with it: Escherichia coli, 24 h; for MIC: ATCC25922, broth microdilution, 37°C. Here is the method: as §1
Data set [4] deals with Leishmania donovani. On the set-up: method as in PMID 30669643, PMID 29758517. The note with it: lead compound 1, previously reported; read-out: IC50 against Leishmania donovani; cited from earlier work.
Data set [5] is described as follows: Cell viability and proliferation assay (WST8/CCK-8). It counts as cell-based. As to conditions: African green monkey, Vero cells (ATCC CCL-81), 48 h treatment, CCK-8; read-out: CC50 [95% CI] Vero cells. The procedure: (§2) Vero cell line (ATCC CCL‐81) was selected as a model system to investigate the overall effect of chalcones on non‐malignant mammalian cells. […] For experiments, cells were seeded into 96‐well plates at 10^4 cells/well and incubated at 37°C for 24 h. Following washes with PBS, the cell monolayer was incubated with 100 µL of medium containing the twofold serial dilutions of the compounds. Both untreated cells and cells incubated with medium containing solvent dilutions were included in each experiment as controls. The cell viability was assessed by a WST8‐based assay according to the manufacturer's instructions (CCK‐8, Cell Counting Kit‐8, Dojindo Molecular Technologies, Rockville, MD, USA). After 48 h of incubation, culture medium was removed from each well, the monolayer was washed with PBS, and 100 µL of fresh medium containing 10 µL of CCK‐8 solution was added. Following a 2 h incubation at 37°C, the OD450nm was read, and data were expressed as the percentage of cell viability relative to the untreated controls. The CC50 was obtained on the corresponding dose–response curves generated as previously reported for IC50 values. Experiments were carried out in triplicate in three biological replicates.
A general note: Formazan colour is commonly taken as a measure of viable cells.

Data set [6] relates to S. aureus biofilm. The data set is described as follows: Inhibition of biofilm formation (crystal violet staining). As to conditions: Staphylococcus aureus, 24 h, CV staining, read-out: inhibition of S. aureus biofilm production. It counts as cell-based. Here is the method:
(§3) The ability of some selected compounds to inhibit biofilm formation was assessed by established protocols with minor modifications. In short, exponential cultures of S. aureus, E. coli, and C. albicans grown in Tryptic Soy broth (TSB, Sigma‐Aldrich, St. Louis, MO, USA) were adjusted to a final density of 10^5 CFU/mL. Aliquots of 100 µL of the microbial cultures were transferred to a 96‐well flat‐bottom polystyrene microplate, and then incubated at 37°C for 90 min to promote bacterial adhesion. Thereafter, wells were slowly rinsed with PBS to remove nonattached cells, and 100 µL of TSB supplemented with 1% glucose containing the twofold serial dilutions of the compounds was added. After incubation at 37°C for 24 h, the free‐floating cells were removed, and the biofilms were carefully washed with PBS. The biomass was quantified by a standardized crystal violet (CV) staining. Briefly, 100 µL of CV solution (0.1% in water) was added to each well containing a completely air‐dried biofilm, and incubated for 30 min at 37°C. […] Finally, the colored supernatants were transferred to a new microplate, and the OD550nm was measured. The percentage inhibition of biofilm formation in the different experimental conditions was calculated relative to the biofilm mass formed in the absence of compounds (positive control).

In data set [7] the test system is E. coli biofilm. Described as above. It counts as cell-based. As to conditions: Escherichia coli, 24 h, CV staining, read-out: inhibition of E. coli biofilm production. Here is the method: as §3
In data set [8] the test system is human red blood cells (hRBCs). As to the kind of experiment: Hemolytic activity assay. The note with it: 25 µM, 90 min, 37°C. The format is cell-based. The procedure:
The hemolytic activity of some selected compounds was evaluated as the amount of hemoglobin released by the disruption of human red blood cells (hRBCs). For the experiments, fresh hRBCs were collected by centrifugation at 1500g for 10 min, washed three times with PBS, and resuspended to a final concentration of 4% w/v hRBCs in PBS. Then, 100 µL of hRBCs suspension and an equal volume of the twofold dilutions of the antimicrobial peptides were mixed in a 96‐well plate and incubated for 90 min at 37°C. After centrifugation at 1000g for 5 min, the supernatants were transferred into a clear 96‐well plate, and OD405nm was read. Untreated hRBCs (incubated with PBS) and hRBCs incubated with 1% Triton X‐100 were employed as negative and positive controls, respectively. The hemolysis percentage was calculated as [OD405nm (sample) − OD4_05nm (negative control)]/[OD405nm (positive control) − OD405nm (negative control)] × 100. Minimal hemolytic concentrations (MHCs) were defined as the compound concentration causing 10% hemolysis. Three independent experiments were performed in triplicate.

Data set [9] deals with C. albicans ATCC 10231. The data set is described as follows: Broth microdilution antimicrobial assay (MIC, IC50). The note with it: Candida albicans, 24 h; for MIC: ATCC10231, broth microdilution, 37°C. It counts as cell-based. Here is the method:
as §1

The test system of data set [10] is Vero cells (ATCC CCL-81). As to the kind of experiment: Cell viability and proliferation assay (WST8/CCK-8). It counts as cell-based. As to conditions: 48 h treatment, CCK-8; read-out: CC50 [95% CI] Vero cells. The procedure:
as §2

The subject of data set [11] is S. aureus ATCC 25923, E. coli ATCC 25922, C. albicans ATCC 10231. As to the kind of experiment: Broth microdilution antimicrobial assay, statements pooled over the three strains. It counts as cell-based. The note with it: stated for S. aureus, E. coli and C. albicans together; read-out: MIC toward the three selected strains. The procedure: The antimicrobial activity of the compounds was assessed by determining the Minimum Inhibitory Concentration (MIC) by a well‐established broth microdilution procedure in microtiter plates and in compliance with the Clinical and Laboratory Standards Institute (CLSI) guidelines.
In short, microbial inocula were prepared at 0.5 McFarland in PBS and, subsequently, bacterial suspensions were diluted 1:200 in Mueller–Hinton broth (Sigma‐Aldrich, St. Louis, MO, USA), while fungal inoculum was diluted 1:20 in RPMI‐1640 medium (Gibco®, ThermoFisher Scientific Inc., Waltham, MA, USA), containing glucose 2%, 0.3% levo‐glutamine buffered to pH 7.0 with 0.165 M 3‐(N‐morpholino) propanesulfonic acid (MOPS). A total of 100 µL of these microbial suspensions was introduced into a 96‐well microplate and incubated with 100 µL of the compounds, two‐fold serially diluted in the range of 100–0.19 µM. Positive controls (microbial suspensions in regular media), negative controls (only compounds), and solvent controls (microbial suspensions incubated with DMSO dilutions) were included in the tests. The plate was incubated at 37°C for 24 h, and subsequently the optical density at 630 nm (OD630nm) was spectrophotometrically measured. Experiments were carried out in triplicate in three biological replicates. […]

Like-named read-outs stand apart in the source and are kept apart here.

As for `C#CCOc1ccc(C(=O)/C=C/c2cccnc2)c(OCC#C)c1` [Compound 1], the IC50 in data set [1] is 43.8 µM; in data set [2] it was 47.6 µM; in [4] it was 4 µM. In addition, in [3], the MIC is over 100 µM.
With `C#CCOc1ccc(C(=O)/C=C/c2ccc[n+](CCCCCCCCCC)c2)c(OCC#C)c1.[Br-]` [Compound 4, (E)‐3‐{3‐[2,4‐Bis(prop‐2‐yn‐1‐yloxy)phenyl]‐3‐oxoprop‐1‐en‐1‐yl}‐1‐decylpyridin‐1‐ium bromide], in data set [5], the CC50 at 48 h came out at 12.8 µM. The inhibition at 25 µM in [6] and in data set [7] was over 90% throughout. The hemolytic activity in data set [8] is 30.0%. The IC50 is 0.84 µM in [2]; 4.28 µM in [9] (ATCC10231, 50% growth inhibition, read-out: IC50 [95% confidence interval] Candida albicans); 4.48 µM in data set [3] (ATCC25922, 50% growth inhibition, read-out: IC50 [95% confidence interval] Escherichia coli). Further, the MIC in [2] amounted to 1.56 µM; in data set [9], 6.25 µM; in data set [3] it was 6.25 µM.
Regarding `C#CCOc1ccc(C(=O)/C=C/c2cccnc2)c(OCC#C)c1` [Compound 9, (E)‐3‐{3‐[2,4‐Bis(prop‐2‐yn‐1‐yloxy)phenyl]‐3‐oxoprop‐1‐en‐1‐yl}pyridin‐1‐ium bromide], the 50% cytotoxic concentration (CC50) in [10] stood at 6.2 µM. Besides, the values for the MIC in data set [11], in data set [2] and in [9] were at least 50 µM, over 100 µM and over 100 µM, respectively.

The term IC50 denotes the point on the concentration scale where inhibition reaches its midpoint. What is called MIC is the least concentration at which growth counts as inhibited. In general, CC50 refers to the concentration at which the toxic effect on the cells reaches its halfway point. As a reminder, the inhibition is the change of the read-out against control, counted positive when it falls.

The record behind these values is publication PMC12066977, “Alkyl Tail Variation on Chalcone‐Based Quaternary Pyridinium Salts as Rule‐of‐Thumb for Antimicrobial Activity” (Archiv Der Pharmazie, 2025).
